From patent publication US20230242513A1, “NOVEL HETEROARYL-SUBSTITUTED PYRAZINE DERIVATIVES AS PESTICIDES” (Bayer Animal Health GmbH, priority 2020, published 2023) come the findings set out here.

Common to all, as to format: in vivo
The subject of test [1] is Diabrotica balteata (banded cucumber beetle larvae). The test is described as follows: Diabrotica balteata spray test. Conditions: 168 h, wheat seeds, after 7 days, read-out: efficacy (seedlings grown up like untreated, uninfected control); for pest or weed control at 32 µg/disc, 100 g/ha: application rate 100 g/ha (=32 μg/well). On the procedure:
Diabrotica balteata—Spray Test
(§1) Solvent: 78.0 parts by weight of acetone • • 1.5 parts by weight of dimethylformamide
(§2) Emulsifier: alkylarylpolyglycol ether
(§3) To produce a suitable preparation of active compound, 1 part by weight of active compound is mixed with the stated amount of solvent, and the concentrate is diluted with water, containing an emulsifier concentration of 1000 ppm, to the desired concentration. Further test concentrations are prepared by dilution with emulsifier containing water.
Soaked wheat seeds (Triticum aestivum) are placed in a multiple well plate filled with agar and some water and are incubated for 1 day to germinate (5 seeds per well). The germinated wheat seeds are sprayed with a test solution containing the desired concentration of the active ingredient. Afterwards each unit is infected with 10-20 larvae of the banded cucumber beetle (Diabrotica balteata).
After 7 days efficacy in % is determined. 100% means all the seedlings have grown up like in the untreated, uninfected control; 0% means none of the seedlings have grown.

Test [2] concerns Rhipicephalus (Boophilus) microplus larvae (strain Parkhurst, resistant against synthetic pyrethroids). Briefly: Rhipicephalus (Boophilus) microplus in-vitro contact test, larval cattle tick. Particulars: application rate 5 μg/cm^2 (=500 g/ha); after 48 hours. The procedure:
Rhipicephalus (Boophilus) microplus—In-Vitro Contact Tests Larval Cattle Tick (Strain Parkhurst, Resistant Against Synthetic Pyrethroids)
9 mg compound is solved in 1 mL acetone and diluted with acetone to the desired concentration. 250 μL of the test solution is filled in 25 mL glass test tubes and homogeneously distributed on the inner walls by rotation and tilting on a shaking device (2 h at 30 rpm). With a compound concentration of 900 ppm, an inner surface of 44.7 cm^2 and a homogeneous distribution, a dose of […] is achieved.
After the solvent has evaporated, each test tube is filled with 20-50 cattle tick larvae (Rhipicephalus microplus), closed with a perforated lid and incubated in a horizontal position at 85% relative humidity and 27° C. in an incubator. After 48 hours efficacy is determined. The larvae are patted on the ground of the tubes and negative geotactic behavior is recorded.
An efficacy of 100% means all larvae are dead or moribund; 0% means no larvae are dead or moribund.

For test [3], the system named is Spodoptera frugiperda (fall armyworm larvae). The test is described as follows: Spodoptera frugiperda spray test. Particulars: in Zea mays, 168 h. The procedure: Spodoptera frugiperda—Spray Test
Solvent: 78.0 parts by weight acetone • 1.5 parts by weight dimethylformamide
as §2
(§4) To produce a suitable preparation of active compound, 1 part by weight of active compound is mixed with the stated amount of solvents and is diluted with water, containing an emulsifier concentration of 1000 ppm, to the desired concentration. Further test concentrations are prepared by dilution with emulsifier containing water.
Maize (Zea mays) leaf sections are sprayed with a preparation of the active ingredient of the desired concentration. Once dry, the leaf sections are infested with fall armyworm larvae (Spodoptera frugiperda).
After 7 days mortality in % is determined. 100% means all caterpillars have been killed and 0% means none of the caterpillars have been killed.

Test [4] relates to Nezara viridula (southern green stink bug larvae). The test is described as follows: Nezara viridula spray test. Particulars: 96 h, application rate 500 g/ha, barley plants, after 4 days. On the procedure:
Nezara viridula—Spray Test
as §1, §2, §3
Barley plants (Hordeum vulgare) are sprayed with a test solution containing the desired concentration of the active ingredient and are infested with larvae of the southern green stink bug (Nezara viridula).
After 4 days mortality in % is determined. 100% means all the stink bugs have been killed; 0% means none of the stink bugs have been killed.

Test [5] deals with Ctenocephalides felis (adult cat fleas). Briefly: Ctenocephalides felis in-vitro contact test, adult cat flea. Conditions: after 48 hours. The procedure: Ctenocephalides felis—In-Vitro Contact Tests Adult Cat Flea
(§5) 9 mg compound is solved in 1 mL acetone and diluted with acetone to the desired concentration. 250 μL of the test solution is filled in 25 mL glass test tubes and homogeneously distributed on the inner walls by rotation and tilting on a shaking device (2 h at 30 rpm). With a compound concentration of 900 ppm, an inner surface of 44.7 cm^2 and a homogeneous distribution, a dose of 5 μg/cm^2 is achieved.
After the solvent has evaporated, each test tube is filled with 5-10 adult cat fleas (Ctenocephalides felis), closed with a perforated lid and incubated in a lying position at room temperature and relative humidity. After 48 hours efficacy is determined. The fleas are patted on the ground of the tubes and are incubated on a heating plate at 45-50° C. for at most 5 minutes. Immotile or uncoordinated moving fleas, which are not able to escape the heat by climbing upwards, are marked as dead or moribund.
An efficacy of 100% means all fleas are dead or moribund; 0% means no fleas are dead or moribund.

The subject of test [6] is Nilaparvata lugens (brown planthopper). Briefly: Nilaparvata lugens spray test. Particulars: 96 h, application rate 500 g/ha, rice plants, after 4 days. On the procedure: Nilaparvata lugens—Spray Test
as §1, §2, §4
Rice plants (Oryza sativa) are sprayed with a preparation of the active ingredient of the desired concentration and the plants are infested with the brown planthopper (Nilaparvata lugens).
After 4 days mortality in % is determined. 100% means all planthoppers have been killed and 0% means none of the planthoppers have been killed.

Test [7] concerns Rhipicephalus sanguineus (adult brown dog ticks). Briefly: Rhipicephalus sanguineus in-vitro contact test, adult brown dog ticks. Conditions: application rate 1 μg/cm^2 (=100 g/ha); after 48 hours. The procedure: Rhipicephalus sanguineus—In-Vitro Contact Tests with Adult Brown Dog Ticks
as §5
After the solvent has evaporated, each test tube is filled with 5-10 adult brown dog ticks (Rhipicephalus sanguineus), closed with a perforated lid and incubated in a lying position at room temperature and relative humidity. After 48 hours efficacy is determined. The ticks are patted on the ground of the tubes and are incubated on a heating plate at 45-50° C. for at most 5 minutes. Immotile or uncoordinated moving ticks, which are not able to escape the heat by climbing upwards, are marked as dead or moribund.
An efficacy of 100% means all ticks are dead or moribund; 0% means no ticks are dead or moribund.

Regarding `CC(NC(=O)c1cc(Br)cc(Br)c1)c1nccnc1-n1cncn1` (racemic) [Example I-7, (rac)-3,5-Dibromo-N-{1-[3-(1H-1,2,4-triazol-1-yl)pyrazin-2-yl]ethyl}benzamide], the pest or weed control at 32 µg/disc, 100 g/ha in test [1] is 100%.
For `CC(NC(=O)c1cc(C(F)(F)F)cc(C(F)(F)F)c1)c1nccnc1-c1cn(C)nn1` (racemic) [Example I-10, (rac)-N-{1-[3-(1-Methyl-1H-1,2,3-triazol-4-yl)pyrazin-2-yl]ethyl}-3,5-bis(trifluoromethyl)benz amide], the “efficacy (larvae dead or moribund)” value in test [2] amounted to 100%. For the same compound, the pest or weed control at 32 µg/disc, 100 g/ha in test [1] amounted to 100%.
As usually defined, the mortality is the share of the test organisms that died. For `CC(NC(=O)c1cc(C(F)(F)F)cc(C(F)(F)F)c1)c1nccnc1-c1cn(-c2ccn(C)n2)nn1` (racemic) [Example I-12, (rac)-N-1-{3-[1-(1-Methyl-1H-pyrazol-3-yl)-1H-1,2,3-triazol-4-yl]pyrazin-2-yl}ethyl]-3,5-bis(trifluoromethyl)benzamide], the “efficacy (larvae dead or moribund)” value in test [2] is listed as 90%. The mortality at 100 g/ha in test [3] stood at 100%.
Consider `Cc1ncn(-c2nccnc2C(C)NC(=O)c2cc(Cl)cc(S(C)(=O)=O)c2)n1` (racemic) [Example I-4, (rac)-3-Chloro-5-(methanesulfonyl)-N-{1-[3-(3-methyl-1H-1,2,4-triazol-1-yl)pyrazin-2-yl]ethyl}benzamide], for which, in test [4], the mortality at 500 g/ha stood at 70%. Further, the pest or weed control at 32 µg/disc, 100 g/ha in test [1] was 100%.
Turning to `CC(NC(=O)c1cc(C(F)(F)F)cc(C(F)(F)F)c1)c1nccnc1-n1cnc(C#N)n1` (racemic) [Example I-27, (rac)-N-{1-[3-(3-Cyano-1H-1,2,4-triazol-1-yl)pyrazin-2-yl]ethyl}-3,5-bis(trifluoromethyl)benzamide], in test [2], the “efficacy (larvae dead or moribund)” value is recorded as 100%.
`Cc1ncn(-c2nccnc2C(C)NC(=O)c2cc(Cl)cc(OC(F)(F)F)c2)n1` (racemic) [Example I-9, (rac)-3-Chloro-N-{1-[3-(3-methyl-1H-1,2,4-triazol-1-yl)pyrazin-2-yl]ethyl}-5-(trifluoromethoxy)benzamide]: in test [3], the mortality at 100 g/ha worked out at 100%. For the same compound, in test [1], the pest or weed control at 32 µg/disc, 100 g/ha is 100%.
`CCOC(=O)Cn1cc(-c2nccnc2C(C)NC(=O)c2cc(C(F)(F)F)cc(C(F)(F)F)c2)nn1` (racemic) [Example I-28, (rac)-Ethyl [4-(3-{1-[3,5-bis(trifluoromethyl)benzamido]ethyl}pyrazin-2-yl)-1H-1,2,3-triazol-1-yl]acetate]: the “efficacy (fleas dead or moribund)” value in test [5] (application rate 5 μg/cm^2 (=500 g/ha)) amounted to 100%. Besides, in test [2], the “efficacy (larvae dead or moribund)” value is recorded as 100%. Besides, the pest or weed control at 160 µg/disc, 500 g/ha in test [1] (application rate 500 g/ha (=160 μg/well)) amounted to 100%.
Regarding `CC(NC(=O)c1cc(Cl)cc(S(C)(=O)=O)c1)c1nccnc1-n1cncn1` (racemic) [Example I-6, (rac)-3-Chloro-5-(methanesulfonyl)-N-{1-[3-(1H-1,2,4-triazol-1-yl)pyrazin-2-yl]ethyl}benzamide], the mortality at 500 g/ha was 90% in test [4] and 100% in test [6]. Also, in test [1], the pest or weed control at 32 µg/disc, 100 g/ha is 100%.
For the compound `Cc1ncn(-c2nccnc2C(C)NC(=O)c2cc(C(F)(F)F)cc(C(F)(F)F)c2)n1` (racemic) [Example I-3, (rac)-N-{1-[3-(3-Methyl-1H-1,2,4-triazol-1-yl)pyrazin-2-yl]ethyl}-3,5-bis(trifluoromethyl)benzamide], the mortality at 100 g/ha in test [3] amounted to 100%. This compound also yielded a mortality at 500 g/ha in test [6] of 90%.
As for `CCN(C)C(=O)c1ncn(-c2nccnc2C(C)NC(=O)c2cc(C(F)(F)F)cc(C(F)(F)F)c2)n1` (racemic) [Example I-21, (rac)-1-(3-{1-[3,5-Bis(trifluoromethyl)benzamido]ethyl}pyrazin-2-yl)-N-ethyl-N-methyl-1H-1,2,4-triazole-3-carboxamide], the “efficacy (fleas dead or moribund)” value in test [5] (application rate 1 μg/cm^2 (=100 g/ha)) came to 80%. In test [2], the “efficacy (larvae dead or moribund)” value came to 100%. Further, the “efficacy (ticks dead or moribund)” value in test [7] turned out to be 80%.
Turning to `CC(NC(=O)c1cc(C(F)(F)F)cc(C(F)(F)F)c1)c1nccnc1-n1cncn1` (racemic) [Example I-5, (rac)-N-(1-[3-(1H-1,2,4-Triazol-1-yl)pyrazin-2-yl]ethyl)-3,5-bis(trifluoromethyl)benzamide], the mortality at 20 g/ha in test [3] is 83%. For the same compound, the mortality at 500 g/ha in test [6] turned out to be 100%. Besides, the pest or weed control at 32 µg/disc, 100 g/ha in test [1] was 100%.
Consider `Cc1ncn(-c2nccnc2C(C)NC(=O)c2cc(Br)cc(Br)c2)n1` (racemic) [Example I-2, 3,5-Dibromo-N-{(rac)-1-[3-(3-methyl-1H-1,2,4-triazol-1-yl)pyrazin-2-yl]ethyl}benzamide], for which the pest or weed control at 32 µg/disc, 100 g/ha in test [1] came to 100%.
Same read-out and setting: to `CC(NC(=O)c1cc(Cl)cc(OC(F)(F)F)c1)c1nccnc1-c1cn(C)nn1` (racemic) [Example I-11, (rac)-3-Chloro-N-{1-[3-(1-methyl-1H-1,2,3-triazol-4-yl)pyrazin-2-yl]ethyl}-5-(trifluoromethoxy)benzamide] belongs 100%.
For `CCN(C)C(=O)c1ncn(-c2nccnc2C(C)NC(=O)c2cc(Cl)cc(S(C)(=O)=O)c2)n1` (racemic) [Example I-25, (rac)-1-(3-{1-[3-Chloro-5-(methanesulfonyl)benzamido]ethyl}pyrazin-2-yl)-N-ethyl-N-methyl-1H-1,2,4-triazole-3-carboxamide], the mortality at 100 g/ha in test [3] amounted to 100%.
For the compound `CC(NC(=O)c1cc(Br)cc(Br)c1)c1nccnc1-c1cn(C)nn1` (racemic) [Example I-15, (rac)-3,5-Dibromo-N-{1-[3-(1-methyl-1H-1,2,3-triazol-4-yl)pyrazin-2-yl]ethyl}benzamide], the pest or weed control at 32 µg/disc, 100 g/ha in test [1] was 100%.
